Patent publication EP1146873B1, “ANTI-ANDROGENS AND METHODS FOR TREATING DISEASE” (SMITHKLINE BEECHAM CORPORATION, priority 1999, dated 2000)
Blank lines part the entries; values can stand above or below the molecule they belong to.

Assays:
[1] = tested on: estradiol; test: Plasma estradiol concentration in male dogs; format: in vivo; settings: for plasma estradiol concentration: single intravenous dose of approximately 26 umoles/kg
Excerpt: (§1) This effect was reversible and was associated with a reduction in serum concentration of luteinizing hormone (LH).

[2] = tested on: cortisol; test: Plasma cortisol concentration in male dogs; format: in vivo; settings: for plasma cortisol concentration: single intravenous dose of approximately 26 umoles/kg
Excerpt: as §1

[3] = tested on: testosterone; test: Serum/plasma testosterone concentration in male dogs after oral or intravenous dosing; format: in vivo; settings: for plasma concentration of testosterone: single intravenous dose of approximately 26 umoles/kg
[4] = tested on: testosterone; test: Plasma testosterone concentration in male rats after oral dosing; format: in vivo; settings: for plasma testosterone concentration: four daily oral doses ≥100 mg/kg, 4 hours after the last dose
Method: (§2) Four daily oral doses ≥100 mg/kg (S)-(-)-N-(α-Ethylbenzyl)-3-(3-carboxy)propoxy-2-phenylquinoline-4-carboxamide or (S)-(-)-N-(α-Ethylbenzyl)-3-carboxymethoxy-2-phenylquinoline-4-carboxamide reduced the plasma testosterone concentration of male rats when measured at 4 hours after the last dose. […] Reductions in plasma testosterone also occurred in male rats following single oral doses of 30 to 1000 mg/kg (S)-(-)-N-(α-Ethylbenzyl)-3-carboxymethoxy-2-phenylquinoline-4-carboxamide. Stimulation of testosterone production in vivo by a LH agonist (human chorionic gonadotropin) was not blocked by a single oral dose of 1000 mg/kg (S)-(-)-N-(α-Ethylbenzyl)-3-carboxymethoxy-2-phenylquinoline-4-carboxamide in male rats.

[5] = tested on: LH; test: Plasma LH concentration in male rats after oral dosing; format: in vivo; settings: four daily oral doses of 300 mg/kg, 4 hours after the last dose
Method: as §2

[6] = tested on: testosterone production; test: Stimulation of testosterone production in vivo by a LH agonist (human chorionic gonadotropin) in male rats; settings: single oral dose of 1000 mg/kg
Method: as §2

[7] = tested on: testes and prostate; test: Once daily oral administration for 1 month, reproductive organ effects in male beagle dogs; format: in vivo
Method: Once daily oral administration of ((S)-(-)-N-(α-Ethylbenzyl)-3-hydroxy-2-phenylquinoline-4-carboxamide) for 1 month to sexually mature male beagle dogs (12 - 16 months of age) produced decreases in the size and/or weight of testes and prostate. […] The incidence and severity of these changes were dose-related with 1 of 3, 2 of 3, 2 of 3, 6 of 6 and 3 of 3 male dogs affected at doses of 0.3, 3, 30, 300 or 1000 mg/kg per day, respectively.

[8] = tested on: reproductive organs; test: Once daily oral administration for 1 month, reproductive organ effects in male rats; format: in vivo; settings: 0.1 to 1000 mg/kg per day
Method: (§3) Once daily oral administration of ((S)-(-)-N-(α-Ethylbenzyl)-3-hydroxy-2-phenylquinoline-4-carboxamide) for 1 month to male rats or for 2 weeks to male mice had no effect on the weights and/or histologic appearance of the reproductive organs. The daily doses ranged from 0.1 to 1000 mg/kg per day.

[9] = tested on: reproductive organs; test: Once daily oral administration for 2 weeks, reproductive organ effects in male mice; format: in vivo; settings: 0.1 to 1000 mg/kg per day
Method: as §3

[10] = tested on: testosterone; test: Serum/plasma testosterone concentration in male dogs after oral or intravenous dosing; format: in vivo
Method: The ((S)-(-)-N-(α-Ethylbenzyl)-3-hydroxy-2-phenylquinoline-4-carboxamide)-dependent changes in the testes and prostate of male dogs were associated with reductions in serum concentration of testosterone. Testosterone concentrations were reduced after either a single oral dose of 300 mg/kg (3 of 3 dogs) or 25 daily oral doses of 0.3 (1 of 3 dogs), 3 (2 of 3 dogs) or 300 mg/kg ((S)-(-)-N-(α-Ethylbenzyl)-3-hydroxy-2-phenylquinoline-4-carboxamide) (3 of 3 dogs). Serum testosterone was measured on blood samples obtained every 2 hours for 24 hours after the single dose and every 20 minutes for 4 hours beginning approximately 2 hours after the last of the 25 daily doses. The reductions in serum testosterone observed after one or 25 daily doses of 300 mg/kg ((S)-(-)-N-(α-Ethylbenzyl)-3-hydroxy-2-phenylquinoline-4-carboxamide) were reversible in all dogs (6 of 6) within one week after the cessation of dosing.
as §1

[11] = tested on: luteinizing hormone (LH); test: Serum luteinizing hormone concentration in male dogs; format: in vivo; settings: single oral dose of 300 mg/kg
Excerpt: as §1

[12] = tested on: androstenedione; test: Plasma androstenedione concentration in male dogs; format: in vivo; settings: single oral dose of 300 mg/kg
Excerpt: as §1

[13] = target: T1, CYP17A1 (Canis lupus familiaris, UniProt A0A8I3PR85); test: Enzyme inhibition in lysed dog Leydig cells; format: biochemical
T1 construct: using lysed dog Leydig cells; from tissue; host or cells: lysate of primary Leydig cells isolated from dog testes
T1 sequence (A0A8I3PR85 19-509): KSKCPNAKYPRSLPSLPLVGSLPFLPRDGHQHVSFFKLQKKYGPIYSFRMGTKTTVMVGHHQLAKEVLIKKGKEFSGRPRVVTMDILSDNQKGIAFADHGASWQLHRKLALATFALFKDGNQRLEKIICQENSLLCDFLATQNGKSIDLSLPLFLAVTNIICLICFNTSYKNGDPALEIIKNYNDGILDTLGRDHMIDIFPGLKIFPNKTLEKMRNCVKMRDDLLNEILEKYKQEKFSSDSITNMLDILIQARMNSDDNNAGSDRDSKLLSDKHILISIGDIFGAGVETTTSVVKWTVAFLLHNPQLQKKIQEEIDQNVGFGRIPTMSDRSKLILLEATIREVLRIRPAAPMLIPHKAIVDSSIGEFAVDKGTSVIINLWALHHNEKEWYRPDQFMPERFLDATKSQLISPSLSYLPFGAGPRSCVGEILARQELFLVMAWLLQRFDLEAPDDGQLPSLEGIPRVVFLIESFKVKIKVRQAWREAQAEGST
Method: This effect occurred at incubation concentrations between 10 and 100 uM. […] Neither (S)-(-)-N-(α-Ethylbenzyl)-3-carboxymethoxy-2-phenylquinoline-4-carboxamide nor (S)-(-)-N-(α-Ethylbenzyl)-3-(3-carboxy)propoxy-2-phenylquinoline-4-carboxamide inhibited testosterone synthesis in Leydig cells isolated from the testis of the rat at the highest incubation concentration tested (300 uM). In contrast, (+)-(R)-3-[3-(4-Phenyl-4-N-methylacetamidopiperidin-1-yl)propyl]-3-(3,4-dichlorophenyl)-1-benzoylpiperidine, and (S)-(-)-N-(α-Ethylbenzyl)-3-[(4-methylpiperazin-1-yl)methyl]-2-phenylquinoline-4-carboxamide inhibited testosterone synthesis of isolated rat Leydig cells at incubation concentrations between 3 and 300 uM.

[14] = once daily oral, 1 month, male beagle dogs
[15] = single oral dose of 300 mg/kg, male dogs

Structure (SMILES): CC(=O)N(C)C1(c2ccccc2)CCN(CCC[C@]2(c3ccc(Cl)c(Cl)c3)CCCN(C(=O)c3ccccc3)C2)CC1 [(+)-(R)-3-[3-(4-Phenyl-4-N-methylacetamidopiperidin-1-yl)propyl]-3-(3,4-dichlorophenyl)-1-benzoylpiperidine]
plasma estradiol concentration [1]: no effect
plasma cortisol concentration [2]: did not lower
plasma concentration of testosterone [3]: reduced

Structure (SMILES): CC[C@H](NC(=O)c1c(OCCCC(=O)O)c(-c2ccccc2)nc2ccccc12)c1ccccc1 [(S)-(-)-N-(α-Ethylbenzyl)-3-(3-carboxy)propoxy-2-phenylquinoline-4-carboxamide]
plasma testosterone concentration [4]: reduced

Structure (SMILES): CC[C@H](NC(=O)c1c(OCCCN2CCN(c3ccccc3OC)CC2)c(-c2ccccc2)nc2ccccc12)c1ccccc1 [(S)-(-)-N-(α-Ethylbenzyl)-3-[3-[4-(2-methoxyphenyl)piperazin-1-yl]propoxy]-2-phenylquinoline-4-carboxamide]
plasma estradiol concentration [1]: no effect
plasma cortisol concentration [2]: did not lower
plasma concentration of testosterone [3]: reduced

Structure (SMILES): CC[C@H](NC(=O)c1c(OCC(=O)O)c(-c2ccccc2)nc2ccccc12)c1ccccc1 [(S)-(-)-N-(α-Ethylbenzyl)-3-carboxymethoxy-2-phenylquinoline-4-carboxamide]
plasma testosterone concentration [4]: reduced
plasma testosterone ([4]; single oral doses of 30 to 1000 mg/kg): Reductions
plasma LH concentration [5]: reduced
stimulation of testosterone production in vivo by a LH agonist (human chorionic gonadotropin) [6]: not blocked
plasma concentration of testosterone [3]: reduced

inhibition of the enzyme (CYP17A1) in the testosterone synthetic pathway [13]: inhibition
Structure (SMILES): CC[C@H](NC(=O)c1c(O)c(-c2ccccc2)nc2ccccc12)c1ccccc1 [(S)-(-)-N-(α-Ethylbenzyl)-3-hydroxy-2-phenylquinoline-4-carboxamide]
male dogs affected (testes and prostate changes) ([7]; 0.3 mg/kg per day oral, 1 month): 1 of 3
male dogs affected (testes and prostate changes) ([7]; 3 mg/kg per day oral, 1 month): 2 of 3
male dogs affected (testes and prostate changes) ([7]; 30 mg/kg per day oral, 1 month): 2 of 3
male dogs affected (testes and prostate changes) ([7]; 300 mg/kg per day oral, 1 month): 6 of 6
male dogs affected (testes and prostate changes) ([7]; 1000 mg/kg per day oral, 1 month): 3 of 3
reversibility of testes and prostate changes ([7]; male beagle dogs): demonstrated
histologic evaluation of prostate [7, 14]: diffuse atrophy of the prostate gland
histologic evaluation of testes [7, 14]: degeneration of the seminiferous epithelium of the testes with depletion of spermatogonia, spermatocytes and spermatids
size and/or weight of testes and prostate ([7]; once daily oral, 1 month, sexually mature male beagle dogs): decreases
weights and/or histologic appearance of the reproductive organs [8]: no effect
weights and/or histologic appearance of the reproductive organs [9]: no effect
dogs with reduced serum testosterone concentration ([10]; 25 daily oral doses of 0.3 mg/kg): 1 of 3
dogs with reduced serum testosterone concentration ([10]; 25 daily oral doses of 3 mg/kg): 2 of 3
dogs with reduced serum testosterone concentration ([10]; 25 daily oral doses of 300 mg/kg): 3 of 3
dogs in which reductions in serum testosterone were reversible ([10]; after one or 25 daily doses of 300 mg/kg, within one week after cessation of dosing): 6 of 6
dogs with reduced serum testosterone concentration ([10]; single oral dose of 300 mg/kg): 3 of 3
reversibility of decrease in serum testosterone [10, 15]: reversible
serum concentration of testosterone [10, 15]: rapid and marked decrease
serum concentration of luteinizing hormone (LH) [11]: reduction
plasma concentration of androstenedione [12]: reduced
plasma concentration of estradiol ([1]; single oral dose of 300 mg/kg): no effect
plasma concentration of cortisol ([2]; single oral dose of 300 mg/kg): no effect
plasma concentration of testosterone [3]: reduced
duration of decrease in serum testosterone ([3]; single oral dose of 300 mg/kg, post-dose): at least 24 hours
